Measured values taken from ChEMBL document CHEMBL1201862, “PubChem BioAssay data set” (2004).
Calls of active or inactive are those of the source.

Tests used:
Paired box protein Pax-8 = Paired box protein Pax-8 (Homo sapiens, UniProt Q06710); experiment: PAX8 transcriptional activity inhibition in RMG-I – RMG-I cells, luciferase, cherry-pick, dose response (AID 687027); assay type: functional, cell-based;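 also: luciferase reporter driven by Pax8 target thyroperoxidase promoter measured by SteadyGlo luminescence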
Chain of Paired box protein Pax-8 (Q06710 whole entry): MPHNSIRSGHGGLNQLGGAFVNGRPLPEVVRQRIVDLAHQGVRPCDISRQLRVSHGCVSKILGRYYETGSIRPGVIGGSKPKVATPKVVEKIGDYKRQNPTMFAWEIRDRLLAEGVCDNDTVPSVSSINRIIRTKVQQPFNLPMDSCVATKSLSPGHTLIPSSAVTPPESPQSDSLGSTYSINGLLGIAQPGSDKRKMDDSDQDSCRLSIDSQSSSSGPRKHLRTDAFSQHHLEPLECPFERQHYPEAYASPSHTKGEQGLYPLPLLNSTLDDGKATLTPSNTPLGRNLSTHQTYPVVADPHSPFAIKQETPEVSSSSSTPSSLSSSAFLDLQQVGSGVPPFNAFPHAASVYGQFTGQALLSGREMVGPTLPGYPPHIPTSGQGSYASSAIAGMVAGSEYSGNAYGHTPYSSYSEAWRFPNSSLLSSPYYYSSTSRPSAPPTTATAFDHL

[1] = molecular target: T1, Rac GTPase-activating protein 1 (Homo sapiens, UniProt Q9H0H5); experiment: blockers of MgcRacGAP-driven Rac1 GTP hydrolysis – biochemical, ADP Hunter fluorescence, primary and confirmatory, confirmation (AID 624330); assay type: functional
T1 sequence (Q9H0H5 whole entry): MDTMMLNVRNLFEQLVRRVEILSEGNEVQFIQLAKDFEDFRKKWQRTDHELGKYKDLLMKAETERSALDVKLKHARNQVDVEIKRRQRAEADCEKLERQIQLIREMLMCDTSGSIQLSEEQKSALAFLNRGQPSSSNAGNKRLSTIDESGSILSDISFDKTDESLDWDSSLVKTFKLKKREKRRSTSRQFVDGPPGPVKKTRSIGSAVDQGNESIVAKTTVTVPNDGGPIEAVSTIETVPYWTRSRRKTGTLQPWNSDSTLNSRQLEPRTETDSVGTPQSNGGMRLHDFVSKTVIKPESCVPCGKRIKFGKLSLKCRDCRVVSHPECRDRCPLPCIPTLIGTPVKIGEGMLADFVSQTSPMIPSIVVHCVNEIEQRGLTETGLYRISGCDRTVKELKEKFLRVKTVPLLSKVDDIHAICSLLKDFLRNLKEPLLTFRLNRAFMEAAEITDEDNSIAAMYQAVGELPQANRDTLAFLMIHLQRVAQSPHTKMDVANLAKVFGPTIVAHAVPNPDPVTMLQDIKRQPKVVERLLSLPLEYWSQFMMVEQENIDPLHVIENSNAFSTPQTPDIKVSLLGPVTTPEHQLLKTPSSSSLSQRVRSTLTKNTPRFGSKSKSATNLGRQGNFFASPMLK

[2] = system: Streptococcus sp. 'group A'; experiment: Streptococcus pyogenes SK(-)GAS viability under kanamycin – luminescence, BacTiterGlo, confirmation, counter-screen for streptokinase expression inhibitor project, dose response (AID 1900); assay type: functional, organism-based
Streptokinase A = molecular target: T2, Streptokinase A (Streptococcus pyogenes serotype M1, UniProt P10520); experiment: viability-normalized secreted streptokinase activity reduction – plasminogen activation absorbance, OD405, dose response (AID 1914); assay type: functional, Streptococcus pyogenes M1 GAS;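 also: secreted streptokinase activity via plasminogen activation per viability signal from cell pellet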
T2 sequence (P10520 whole entry): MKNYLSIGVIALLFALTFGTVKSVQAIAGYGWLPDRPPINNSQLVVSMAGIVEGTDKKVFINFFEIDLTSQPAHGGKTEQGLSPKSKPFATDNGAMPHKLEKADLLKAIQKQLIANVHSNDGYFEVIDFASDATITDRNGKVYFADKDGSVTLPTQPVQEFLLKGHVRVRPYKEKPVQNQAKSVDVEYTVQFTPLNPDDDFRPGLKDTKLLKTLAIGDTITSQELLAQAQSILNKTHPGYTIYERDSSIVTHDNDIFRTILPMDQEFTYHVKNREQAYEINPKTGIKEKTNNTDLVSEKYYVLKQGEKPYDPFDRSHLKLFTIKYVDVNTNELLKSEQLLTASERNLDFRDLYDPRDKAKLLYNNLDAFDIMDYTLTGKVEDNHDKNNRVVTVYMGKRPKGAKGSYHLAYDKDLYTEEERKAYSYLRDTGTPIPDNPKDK

Streptococcus = experiment: GAS UMAA2166 growth inhibition – luminescence, BacTiterGlo, counter-screen for streptokinase expression inhibitor project, dose response (AID 1915); assay type: functional, organism-based;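 also: potency for reduction of bacterial viability or growth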
[3] = luciferase reporter signal suppression in cells – H4 neuroglioma cells, luminescence, dose response (AID 1990); assay type: functional, cell-based
[4] = Luminescence Cell-Based Dose Response HTS to Identify Inhibitors of 5'UTR Stem-Loop Driven Prion Protein mRNA Translation in H4 Neuroglioblastoma Cells. [Related pubchem assays: 1827 (Project Summary), 1813 (Primary HTS)]; assay type: functional
[5] = alpha-synuclein stem-loop luciferase translation blockers – H4 neuroglioma cells, luminescence, confirmation (AID 1988); assay type: functional, cell-based
INS1 = experiment: INS-1E survival protection against cytokine death – cell-based, luminescence, retest, dose response (AID 449756); assay type: functional; conditions: Rattus norvegicus;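 also: cell death triggered by IL-1 beta plus TNF-alpha plus IFN-gamma mixture; protective hits raise ATP signal compared with cytokine alone wells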
[6] = Luminescence Cell-Based Dose Retest to Confirm Inhibitors of Cancer Stem Cells. [Related pubchem assays (depositor defined):AID2717, AID2721]; assay type: functional; conditions: Homo sapiens
Cytochrome P450 2C19 = Cytochrome P450 2C19 (Homo sapiens, UniProt P33261); experiment: Cytochrome panel assay with activity outcomes. Panel member name: p450-cyp2c19 Compounds with AC50 equal or less than 10 uM are considered active; assay type: functional
Chain of Cytochrome P450 2C19 (P33261 whole entry): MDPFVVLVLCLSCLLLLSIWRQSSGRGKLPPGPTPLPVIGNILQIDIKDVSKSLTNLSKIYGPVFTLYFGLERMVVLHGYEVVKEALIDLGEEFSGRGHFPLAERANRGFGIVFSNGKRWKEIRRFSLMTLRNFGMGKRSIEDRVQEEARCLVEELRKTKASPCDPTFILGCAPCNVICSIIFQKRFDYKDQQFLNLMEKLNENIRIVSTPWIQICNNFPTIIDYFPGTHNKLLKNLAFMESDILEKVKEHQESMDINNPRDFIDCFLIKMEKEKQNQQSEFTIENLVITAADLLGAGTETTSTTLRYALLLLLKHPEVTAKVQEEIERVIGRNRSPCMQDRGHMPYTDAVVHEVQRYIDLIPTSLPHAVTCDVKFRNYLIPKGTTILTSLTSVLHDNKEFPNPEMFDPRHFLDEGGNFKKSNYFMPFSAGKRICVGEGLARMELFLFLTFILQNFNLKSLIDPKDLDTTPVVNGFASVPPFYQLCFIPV

Cytochrome P450 2C9 = Cytochrome P450 2C9 (Homo sapiens, UniProt P11712)
Chain of Cytochrome P450 2C9 (P11712 whole entry): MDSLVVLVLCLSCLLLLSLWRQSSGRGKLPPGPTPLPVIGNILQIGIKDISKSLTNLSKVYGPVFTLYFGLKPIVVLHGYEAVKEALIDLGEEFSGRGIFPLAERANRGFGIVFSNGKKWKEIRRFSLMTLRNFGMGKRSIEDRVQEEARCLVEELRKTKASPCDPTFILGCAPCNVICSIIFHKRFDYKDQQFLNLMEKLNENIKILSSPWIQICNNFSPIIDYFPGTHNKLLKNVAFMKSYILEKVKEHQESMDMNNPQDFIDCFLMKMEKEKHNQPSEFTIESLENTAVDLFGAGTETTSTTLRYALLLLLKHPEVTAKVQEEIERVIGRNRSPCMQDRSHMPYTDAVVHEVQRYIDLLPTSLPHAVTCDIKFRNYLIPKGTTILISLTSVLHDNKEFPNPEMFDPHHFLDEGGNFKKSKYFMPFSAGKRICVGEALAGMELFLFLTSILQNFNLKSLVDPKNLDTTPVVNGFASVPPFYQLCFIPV

Compound: C[C@@H]1CN([C@H](C)CO)C(=O)c2cc(NC(=O)Nc3ccc(F)cc3)ccc2O[C@@H](C)CCCCO[C@H]1CN(C)C(=O)Nc1ccc(F)cc1
- AC50 (Paired box protein Pax-8): 10.8 µM (active)

Compound: O=c1c2sc3ccccc3c2[nH]c(=S)n1CCN1CCOCC1
- IC50 [1]: 91.3 µM (active)

Compound: C/C(=N\NC(=S)NCc1ccccc1)c1cccc(Br)c1
- EC50 [2]: 8.85 µM (active)
- EC50 (Streptokinase A): > 150 µM (not active)
- EC50 (Streptococcus): > 150 µM (not active)

Compound: C=CC[n+]1c(/C=C/c2ccc(OC(C)=O)c(OC)c2)ccc2ccccc21
- IC50 [1]: 61.2 µM (active)

Compound: COc1cccc(C(=O)Nc2cccc(OCC(=O)O)c2)c1
- EC50 [3]: > 120 µM (not active)
- EC50 [4]: > 120 µM (not active)
- EC50 [5]: 25.9 µM (active)

Compound: C/C(=N\NC(=O)c1ccc(NS(=O)(=O)c2cccs2)cc1)c1ccccn1
- AC50 (INS1): 3.08 µM (active)

Compound: Cn1cnc2cc(NCc3ccccc3O)ccc21
- IC50 [1]: 93.9 µM (active)

Compound: CCOc1ccccc1CN1CCC(N2CCOCC2)CC1
- IC50 [1]: 83 µM (active)

Compound: O=c1[nH]c(=O)n(Cc2ccco2)c2c1C(C(F)(F)F)(C(F)(F)F)NC(c1ccc(F)cc1)=N2
- AC50 (INS1): 3.11 µM (active)

Compound: COc1ccc(NC(=O)c2cc3ccc(O)cc3o/c2=N\O)cc1
- AC50 [6]: 5.22 µM (active)
- IC50 [1]: 42 µM (active)

Compound: Cc1cccc(Oc2nc(-c3ccncc3)nc3ccccc23)c1
- EC50 [2]: 10.9 µM (active)
- EC50 (Streptokinase A): > 150 µM (not active)
- EC50 (Streptococcus): 12.5 µM (active)

Compound: CCCCN1C(=O)C(NC(=O)c2cccnc2)(C(F)(F)F)C2=C1CC(C)(C)CC2=O (stereo not given)
- AC50 (Cytochrome P450 2C19): inconclusive
- AC50 (Cytochrome P450 2C9): 35.5 µM (inconclusive)

Compound: CCC1CSC(Nc2ccc(C(=O)/C=C/c3ccc(Br)cc3)cc2)=N1 (stereo not given)
- AC50 [6]: 2 µM (active)

Compound: COc1ccc(CCNCCN2CCOCC2)cc1
- IC50 [1]: 77.1 µM (active)

Compound: COc1ccc(N2CCCC2)c(NC(=O)COc2ccccc2Cl)c1
- EC50 [3]: 13.9 µM (active)
- EC50 [4]: > 120 µM (not active)
- EC50 [5]: 13.1 µM (active)

Compound: Oc1nc(CN2CC=C(c3ccccc3)CC2)nc2scc(-c3cccs3)c12
- EC50 [2]: 12.2 µM (active)
- EC50 (Streptokinase A): > 150 µM (not active)
- EC50 (Streptococcus): > 150 µM (not active)

Compound: CCCCCSc1nnc(C)c(O)n1
- AC50 (Cytochrome P450 2C19; read-out: AC50): 39.8 µM (inconclusive)
- AC50 (Cytochrome P450 2C9): 8.91 µM (inconclusive)

Compound: C[C@@H]1CN([C@H](C)CO)C(=O)c2c(c3ccccc3n2C)-c2ccccc2CO[C@@H]1CN(C)C
- AC50 (Paired box protein Pax-8): 66.1 µM (active)

Compound: C/C(=C\C(=O)c1ccccc1)Nc1ccc(O)cc1
- IC50 [1]: 20.2 µM (active)

Compound: O=C(Nc1cc(Br)c(O)c(Br)c1)c1cccc(NC(=O)c2ccco2)c1
- IC50 [1]: 95.2 µM (active)

Compound: Cc1ccc(S(=O)(=O)[N-]C2=C([n+]3ccn(CCC(C)C)c3)C(=O)c3ccccc3C2=O)cc1
- AC50 (INS1): 5.8 µM (active)

Compound: COC(=O)C1=C(CSc2nc3ccccc3o2)NC(=O)NC1c1cc(C)ccc1C (stereo not given)
- EC50 [3]: > 120 µM (not active)
- EC50 [4]: > 120 µM (not active)
- EC50 [5]: > 120 µM (not active)

Compound: Cc1ccc(C2CC(c3cccs3)=NN2C(=O)c2ccc(Br)o2)cc1 (stereo not given)
- EC50 [2]: 3.12 µM (active)
- EC50 (Streptokinase A): > 150 µM (not active)
- EC50 (Streptococcus): 34.1 µM (active)
